From patent US20240398759A1, “INHIBITING SEROTONIN TRANSPORTER PROTEIN (5-HTT)” (priority 2022, published 2024)
Where two headings read alike, the source gives them in different places.

Assays:
[1] = Hepatocyte metabolism (stability in cryopreserved hepatocytes); settings: human hepatocytes
Method: (§4) A 2.5 uL aliquot of 100 μM test compound was incubated with 247.5 uL of cryopreserved hepatocytes suspended in serum-free incubation medium at 1 million viable cells/mL. The mixture was incubated at 37° C. and shaken at 500 rpm for the designated time points (0.5, 5, 10, 15, 30, 60, 90, or 120 min). At each time point, 25 uL aliquot of incubation mixture was transferred to 125 uL of cold acetonitrile containing internal standard, followed by centrifugation for 30 min at 3,220 g. 100 uL of supernatant was mixed with 100 uL of distilled water for analysis by LC-MS/MS. Peak area ratios were determined from extracted ion chromatograms and percent recovery was calculated.

[2] = dog, in vivo; for AUC_% Extrap_obs / AUClast/D / Cl_obs / F: beagle
Excerpt: (§5) HPLC Instrument: Shimsadzu (DGU-20A5R, Serial No: L20705621435 IX; LC-30AD Serial No: L20555611905 AE and L20555611816 AE; SIL-L30AC, Serial No: L20565605499 AE; Rack Changer II Serial No. L20585601125 SS; CTO20A: Serial No. L20205620413 CD; CBM-20A: Serial No. L20235636200 CD) • MS: AB API 5500 LC/MS/MS instrument (Serial No. EF221221812) • Column: Phenomenex Synergi 2.5 μm Polar-RP 100A. (50×3 mm) • Mobile Phase: (A) 5% Acetonitrile in Water (0.1% Formic acid); (B) 95% Acetonitrile in Water (0.1% Formic acid) • Samples: 50 μL of plasma sample+5 μL of blank solution+200 μL of acetonitrile for PPE (protein precipitation extraction).
(§6) The desired serial concentrations of working solutions were achieved by diluting stock solution of analyte with 50% acetonitrile in water solution. 5 μL of working solutions (5, 10, 20, 50, 100, 500, 1000, 5000, 10000 ng/mL) were added to 50 μL of the blank Beagle Dog plasma to achieve calibration standards of 0.5˜1000 ng/mL (0.5, 1, 2, 5, 10, 50, 100, 500, 1000 ng/mL) in a total volume of 55 μL. Five quality control samples at 1 ng/mL, 2 ng/mL, 5 ng/mL, 50 ng/mL and 800 ng/mL for plasma were prepared independently of those used for the calibration curves. These QC samples were prepared on the day of analysis in the same way as calibration standards.
(§7) 55 μL standards, 55 μL QC samples and 55 μL unknown samples 50 μL plasma with 5 μL blank solution) were added to 200 μL of acetonitrile containing IS mixture for precipitating protein respectively. Then the samples were vortexed for 30 s. After centrifugation at 4 degree Celsius, 3900 rpm for 15 min, the supernatant was diluted 3 times with water.

PDE4B2 = PDE4B2 (Homo sapiens (Human), UniProt Q07343); experiment: PDE4 inhibition assay (fluorescence polarization), PDE4B2; type: biochemical
Method: (§1) 100 μM dilutions of the test compounds were prepared in assay buffer (10% DMSO concentration) and 5 μl of the dilution was added to a 50 μl reaction so that the final concentration of DMSO is 1% in all of reactions. The enzymatic reactions were conducted at room temperature for 60 minutes in a 50 μl mixture containing PDE assay buffer, 100 nM FAM-cAMP, a PDE enzyme (Table 2.3.1) and the test compound (Section 2.2). After the enzymatic reaction, 100 μl of a binding solution (1:100 dilution of the binding agent with the binding agent diluent) was added to each reaction and the reaction was performed at room temperature for 60 minutes. Fluorescence intensity was measured at an excitation of 485 nm and an emission of 528 nm using a Tecan Infinite M1000 microplate reader.
(§2) • 1) Dilute 20 μM FAM-Cyclic-3′, 5′-AMP stock 100-fold with PDE buffer to make a 200 nM solution. • 2) Add 25 μl of FAM-Cyclic-3′,5′-AMP (200 nM) to each well designated “Positive Control”, “Test Inhibitor”, and “Substrate Control”. • 3) Add 20 μl of PDE assay buffer to each well designated “Substrate Control” and 45 μl of PDE assay buffer to each well designated “Blank”. • 4) Add 5 μl of inhibitor solution to each well designated “Test Inhibitor”. For the wells labeled “Positive Control”, “Substrate Control” and “Blank”, add 5 μl of the same solution without inhibitor (inhibitor buffer). • 5) Thaw PDE on ice. Upon first thaw, briefly spin tube containing enzyme to recover the full contents of the tube. • 6) Dilute PDE4 in PDE buffer to 7.5 pg/μl (0.15 ng/reaction)*. Initiate reaction by adding 20 µl of PDE4 (7.5 pg/μl) to the wells designated “Positive Control” and “Test Inhibitor.” • 7) Incubate at room temperature for 1 hour.
(§3) • 1) Mix binding agent thoroughly and dilute binding agent 1:100 with binding agent diluent. • 2) Add 100 μl diluted binding agent to each microwell. Incubate at room temperature for 1 hour with slow shaking. • 3) Read the fluorescent polarization of the sample in a microtiter-plate reader equipped for the measurement of fluorescence polarization, capable of excitation at wavelengths ranging from 485±5 nm and detection of emitted light ranging from 528±10 nm. Blank value is subtracted from all other values. • 4) Data Analysis: PDE activity assays were performed in duplicate at each concentration. Fluorescence intensity is converted to fluorescence polarization using the Tecan Magellan6 software. The fluorescence polarization data were analyzed using the computer software, Graphpad Prism. The fluorescence polarization (FPt) in absence of the compound in each data set was defined as 100% activity. In the absence of PDE and the compound, the value of fluorescent polarization (FPb) in each data set was defined as 0% activity. The percent activity in the presence of the compound was calculated according to the following equation: % activity=(FP−FPb)/(FPt−FPb)×100%, where FP=the fluorescence polarization in the presence of the compound. The values of % activity versus a series of compound concentrations were then plotted using non-linear regression analysis of sigmoidal dose-response curve generated with the equation Y=B+(T−B)/1+10^(LogEC50−X)×Hill Slope), where Y=percent activity, B=minimum percent activity, T=maximum percent activity, X=logarithm of compound and Hill Slope=slope factor or Hill coefficient. The IC50 value was determined by the concentration causing a half-maximal percent activity.

mouse behavior = experiment: SmartCube system behavioral signature in mice; type: in vivo; settings: for signature in class and subclass: mice, 10, 30 and 100 mg/kg
Excerpt: To confirm that compound 018 and Compound 019 has antidepressant effects, the SmartCube® system (Psychogenics, Inc., Paramus, NJ) was used. This system uses features derived from mouse behavioral data to classify compounds for their ability to treat neuro-psychiatric symptoms by comparing the features to a proprietary reference database of behavioral feature sets that are linked to classes of marketed drugs known to treat neuro-psychiatric symptoms. Thus the system can be used as a model to identify the psychiatric effect of a compound by comparing the effects of the compounds against drugs with known validated effects. By comparing the responses of animals to known drugs, the test drug can be categorized according to its function; for example, hallucinogen, anxiogenic, analgesic, cognitive enhancer, psychostimulant, mood stabilizer, high dose anti-psychotic, anti-psychotic, sedative/hypnotic, anxiolytic, high dose antidepressant, antidepressant.
Once all features are extracted from the raw data through an automated pipeline, proprietary bioinformatics algorithms are used to decorrelate groups of features and find the combination of values that best separate different groups of interest. For each compound, at each dose, they system provides a probability that the drug is active and breaks down such putative activity into the different classes of interest.
Mice were tested in the SmartCube® system where they were exposed to a sequence of challenges during the 45-minute test period. The cubes were cleaned between each run.
For class and subclass analysis, a reference data set has been built from hundreds of drug doses in multiple drug classes plus a control group. Each reference drug was tested at multiple doses appropriate for that drug in mice. The best performing classifiers were chosen from our evaluation tests and two separate types of classifiers were built that make independent predictions at drug class and subclass levels. The Class consists of drugs that are currently in the market or have been clinically validated for that specific indication. The sub-class consists of both marketed drugs and other compounds that have been mechanistically validated and is a larger set than the Class.
Data was processed using proprietary computer vision and data mining algorithms and the results were compared to signatures of the reference compounds in our database. Multiple analyses of the data was performed to quantitatively produce independent predictions of drug class, and drug subclass. The behavioral signatures of the test drug were evaluated using these classifiers to predict potential therapeutic utility.

SERT = SERT (Homo sapiens (Human), UniProt P31645); experiment: SERT inhibition assay (Neurotransmitter Transporter fluorescence uptake, stable 5HTT HEK293 cells); type: cell-based; settings: n=6 ± SD
Method: SERT inhibition was measured using a Neruotransmitter Transportation Fluorescence assay. Briefly, stable 5HTT HEK293 cells were prepared in a 384 microwell plate (20,000 cells per 20 μL well). Compounds were prepared by in assay buffer (20 mM HEPES in HBSS, 0.1% BSA) at a top concentration of 1 μM. 10 doses of test compound (3-fold serial dilution) were added to the plated cells and incubated for 30 minutes at 37° C. 25 μL of dye solution (Molecular Devices Neurotransmitter Transporter Uptake Assay Kit) was added per well and incubated for 30 minutes at 37° C.

PDE4A1A = PDE4A1A (Homo sapiens (Human), UniProt P27815); experiment: PDE4 inhibition assay (fluorescence polarization), PDE4A1A; type: biochemical; settings: 10 μM; for inhibition at 10 µM: read-out: PDE4A1A % INH @ 10 μM
Method: as §1, §2, §3

PDE4C1 = PDE4C1 (Homo sapiens (Human), UniProt Q08493); experiment: PDE4 inhibition assay (fluorescence polarization), PDE4C1; type: biochemical; settings: 10 μM
Method: as §1, §2, §3

in vivo = settings: beagle, dog
Excerpt: as §5, §6, §7

[3] = human, 1 µM
Method: as §4

in vitro = settings: human hepatocytes
Method: as §4

PDE4D2 = PDE4D2 (Homo sapiens (Human), UniProt Q08499); experiment: PDE4 inhibition assay (fluorescence polarization), PDE4D2; type: biochemical; settings: 10 μM; for inhibition at 10 µM: read-out: PDE4D2 %INH @ 10 μM
Method: as §1, §2, §3

Sequence of PDE4B2 (Q07343 other isoform, or with tags, fused parts or gaps): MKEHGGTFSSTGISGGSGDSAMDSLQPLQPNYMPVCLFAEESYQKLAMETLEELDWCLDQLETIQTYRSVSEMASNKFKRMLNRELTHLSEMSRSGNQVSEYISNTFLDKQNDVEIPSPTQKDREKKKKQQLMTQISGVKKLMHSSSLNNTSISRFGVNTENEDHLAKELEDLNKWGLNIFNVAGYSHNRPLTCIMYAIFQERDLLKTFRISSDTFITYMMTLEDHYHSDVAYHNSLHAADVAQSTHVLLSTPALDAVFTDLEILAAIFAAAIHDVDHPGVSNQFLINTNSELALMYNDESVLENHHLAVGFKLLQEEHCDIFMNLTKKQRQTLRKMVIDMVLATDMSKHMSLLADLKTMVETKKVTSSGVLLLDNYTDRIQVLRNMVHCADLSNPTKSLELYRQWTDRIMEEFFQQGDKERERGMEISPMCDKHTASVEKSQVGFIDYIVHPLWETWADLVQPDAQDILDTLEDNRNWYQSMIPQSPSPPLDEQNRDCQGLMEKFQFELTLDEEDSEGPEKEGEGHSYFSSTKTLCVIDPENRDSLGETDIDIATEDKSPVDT
Sequence of PDE4A1A (P27815 other isoform, or with tags, fused parts or gaps): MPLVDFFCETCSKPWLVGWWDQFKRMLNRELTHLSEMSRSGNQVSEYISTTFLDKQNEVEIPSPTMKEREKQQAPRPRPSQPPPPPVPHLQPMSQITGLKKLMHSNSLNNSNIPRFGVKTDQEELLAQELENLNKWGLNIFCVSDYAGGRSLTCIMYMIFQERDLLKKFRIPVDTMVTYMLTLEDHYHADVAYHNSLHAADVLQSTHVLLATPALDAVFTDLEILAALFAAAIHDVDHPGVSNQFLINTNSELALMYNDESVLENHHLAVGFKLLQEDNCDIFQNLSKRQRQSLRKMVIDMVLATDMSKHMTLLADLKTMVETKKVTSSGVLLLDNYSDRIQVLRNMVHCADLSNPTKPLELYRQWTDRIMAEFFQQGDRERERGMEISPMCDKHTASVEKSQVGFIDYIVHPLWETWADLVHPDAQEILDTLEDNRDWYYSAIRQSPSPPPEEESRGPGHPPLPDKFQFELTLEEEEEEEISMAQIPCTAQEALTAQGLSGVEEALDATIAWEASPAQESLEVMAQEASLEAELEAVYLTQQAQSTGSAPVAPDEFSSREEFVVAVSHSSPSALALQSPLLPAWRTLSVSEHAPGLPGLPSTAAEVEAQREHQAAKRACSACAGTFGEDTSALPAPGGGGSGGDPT
Sequence of PDE4D2 (Q08499 303-809): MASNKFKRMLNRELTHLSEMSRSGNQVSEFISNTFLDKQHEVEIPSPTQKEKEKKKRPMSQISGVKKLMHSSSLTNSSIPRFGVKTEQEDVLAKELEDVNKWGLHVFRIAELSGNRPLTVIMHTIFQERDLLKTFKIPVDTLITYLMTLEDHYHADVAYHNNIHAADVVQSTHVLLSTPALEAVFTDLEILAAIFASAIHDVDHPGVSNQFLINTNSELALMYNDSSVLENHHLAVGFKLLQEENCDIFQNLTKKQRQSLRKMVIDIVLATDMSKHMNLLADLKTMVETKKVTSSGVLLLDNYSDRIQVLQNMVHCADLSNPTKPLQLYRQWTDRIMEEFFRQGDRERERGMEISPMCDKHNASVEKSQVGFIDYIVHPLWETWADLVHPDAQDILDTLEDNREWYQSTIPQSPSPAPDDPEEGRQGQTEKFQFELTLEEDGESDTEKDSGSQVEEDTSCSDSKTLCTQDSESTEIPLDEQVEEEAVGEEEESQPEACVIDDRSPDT
Sequence of PDE4C1 (Q08493 whole entry): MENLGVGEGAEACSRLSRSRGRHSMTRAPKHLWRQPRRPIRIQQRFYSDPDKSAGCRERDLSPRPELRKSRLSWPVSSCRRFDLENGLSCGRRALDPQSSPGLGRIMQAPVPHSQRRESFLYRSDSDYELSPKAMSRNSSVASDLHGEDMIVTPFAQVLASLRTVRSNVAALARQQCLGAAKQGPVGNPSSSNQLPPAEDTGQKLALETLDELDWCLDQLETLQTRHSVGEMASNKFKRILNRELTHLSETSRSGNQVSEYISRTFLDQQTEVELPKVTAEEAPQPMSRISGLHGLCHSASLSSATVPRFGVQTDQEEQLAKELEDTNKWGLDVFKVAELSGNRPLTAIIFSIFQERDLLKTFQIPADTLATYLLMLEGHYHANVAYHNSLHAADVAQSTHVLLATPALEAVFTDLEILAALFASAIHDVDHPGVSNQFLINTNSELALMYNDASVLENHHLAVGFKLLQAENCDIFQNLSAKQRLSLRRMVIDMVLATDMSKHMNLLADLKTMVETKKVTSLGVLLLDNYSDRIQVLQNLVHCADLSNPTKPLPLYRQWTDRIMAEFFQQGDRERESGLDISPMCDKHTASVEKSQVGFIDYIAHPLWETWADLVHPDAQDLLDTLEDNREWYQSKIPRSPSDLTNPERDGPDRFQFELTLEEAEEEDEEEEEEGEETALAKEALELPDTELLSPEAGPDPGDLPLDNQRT

SMILES	Extraction Ratio [1]	t1/2 [1]	AUC_% Extrap_obs ([2]; iv, 2 mg/kg)	AUClast/D ([2]; iv, 2 mg/kg)	Cl_obs ([2]; iv, 2 mg/kg)	AUC_% Extrap_obs ([2]; po, 10 mg/kg)	AUClast/D ([2]; po, 10 mg/kg)	F ([2]; po, 10 mg/kg)	PDE4B2 % INH @ 10 μM (PDE4B2)	behavioral activity (in words) (mouse behavior; mice, 3 mg/kg)	signature in class and subclass (mouse behavior)	IC50 (SERT)	PDE4A1A % INH @ 10 μM (PDE4A1A)	inhibition at 10 µM (PDE4A1A)	PDE4C1 % INH @ 10 μM (PDE4C1)	AUC(0-inf) (in vivo; iv, 2 mg/kg)	AUC(0-t) (in vivo; iv, 2 mg/kg)	C0 (in vivo; iv, 2 mg/kg)	MRT inf (in vivo; iv, 2 mg/kg)	half-life (in vivo; iv, 2 mg/kg)	other results
COc1ccc([C@@]23CC[C@@H](O)C[C@@H]2N(C)CC3)cc1OC [Compound 018, (3aS,6R,7aS)-3a-(3,4-dimethoxyphenyl)-1-methyloctahydro-1H-indol-6-ol]	0.13	>2 h	0.26%	355	47.6 mL/min/kg	5.10%	14.4	4.3%	3%	behaviorally inactive	robust antidepressant-like signature with a small portion showing psychostimulant-like signature	21.9 ± 8 nM	5%	≤ 5%	1%	712 ng·h/mL	710 ng·h/mL	6250 ng/mL	0.71 h	1.78 h	inhibition at 10 µM (PDE4B2; read-out: PDE4B2 % INH @ 10 μM): ≤ 5%; behavioral activity (mouse behavior; mice, 3 mg/kg): < 40%; PDE4C1 % INH @ 10 μM (PDE4C1; listed as Compound 18): no more than 5%; AUC(0-inf) (in vivo; po, 10 mg/kg): 151 ng·h/mL; AUC(0-t) (in vivo; po, 10 mg/kg): 144 ng·h/mL; Cmax (in vivo; po, 10 mg/kg): 84.4 ng/mL; MRT inf (in vivo; po, 10 mg/kg): 3.95 h; Tmax (in vivo; po, 10 mg/kg): 0.28 h; half-life (in vivo; po, 10 mg/kg): 5.95 h; % QH [3]: 13%; CLHB [3]: 3 mL/min/kg; CLint scaled at 1 µM (in vitro): 3 mL/min/kg; half-life at 1 µM (in vitro): > 2 h; hepatocyte CLint at 1 µM (in vitro): 1 µL/min/1e6 cells; PDE4D2 %INH @ 10 μM (PDE4D2): 4%; inhibition at 10 µM (PDE4D2): ≤ 5%
COc1ccc([C@@]23CC[C@H](O)C[C@@H]2N(C)CC3)cc1OC [Compound 019, (3aS,6S,7aS)-3a-(3,4-dimethoxyphenyl)-1-methyloctahydro-1H-indol-6-ol]	<0.10	>2 h	0.52%	1560	10.82 mL/min/kg	0.64%	1473.2	94.6%	0%	low behaviorally activity	mixed antidepressant and psychostimulant-like signatures	10.6 ± 10.1 nM	4%	≤ 5%	3%	3140 ng·h/mL	3120 ng·h/mL	1530 ng/mL	3.86 h	3.38 h	half-life compared to Compound 018 ([2]; iv): about three times greater; PDE4B2 % INH @ 10 μM (PDE4B2; listed as Compound 19): no more than 5%; antidepressant signature, subclass analysis (mouse behavior; mice, 100 mg/kg): a mix of SSRI and SNRI; inhibition at 10 µM (PDE4C1; read-out: PDE4C1 % INH @ 10 μM): ≤ 5%; AUC(0-inf) (in vivo; po, 10 mg/kg): 14800 ng·h/mL; AUC(0-t) (in vivo; po, 10 mg/kg): 14700 ng·h/mL; Cmax (in vivo; po, 10 mg/kg): 2550 ng/mL; MRT inf (in vivo; po, 10 mg/kg): 4.85 h; Tmax (in vivo; po, 10 mg/kg): 0.83 h; half-life (in vivo; po, 10 mg/kg): 3.33 h; % QH [3]: <10%; CLHB [3]: <2 mL/min/kg; CLint scaled at 1 µM (in vitro): < 2 mL/min/kg; half-life at 1 µM (in vitro): > 2 h; hepatocyte CLint at 1 µM (in vitro): < 1 µL/min/1e6 cells; PDE4D2 %INH @ 10 μM (PDE4D2): 3%; inhibition at 10 µM (PDE4D2): ≤ 5%
